Experimental data published in patent publication US12152077B1, “Immunotherapy targeting tumor neoantigenic peptides” (INSTITUT CURIE, priority 2019, dated 2024).
“Also recorded” adds a separate entry of the source.

What was measured:
[1] = system: CD8+ T cells from HLA-A2+ healthy donors; assay: Priming of naive CTLs by peptide-loaded autologous moDCs (immunogenicity, tetramer staining); assay type: cell-based, human; conditions: for specific CD8+ T expansions (immunogenicity): total of 6 donors, FIG. 11A; for expansion of specific CD8+ T cells (tetramer positive): one donor, versus co-culture without peptides
Experimental: Priming of naïve CTLs. PBMCs were obtained by Ficoll gradient separation from HLA-A2+ healthy blood donors. CD14+, CD4+ and CD8+ cells were purified by positive selection using magnetic beads (Miltenyi Biotec). While CD4+ and CD8+ T cells were cryopreserved until the experiment day, CD14+ fraction was cultured in the presence of IL-4 (50 ng/mL) and GM-CSF (10 ng/ml) at 10^6 cells/mL during 5 days to obtain moDCs. After this period of time, the moDCs were maturated with LPS and incubated with synthetic ER-derived peptides at a final concentration of 1 μg/mL for 2 hours. Finally, peptide-loaded moDCs were co-cultured with autologous CD4+ and CD8+ T cells in culture medium supplemented with IL-2 (10 U/ml) and IL-7 (100 ng/ml). The ER-derived peptide stimulation of specific CD8+ CTL populations was assessed by MHC-I tetramer staining by flow cytometry using a combination of two-color tetramer for each peptide.
(§1) Tetramer Staining. Cells were resuspended in PBS, stained with Live/Dead Aqua-405 nm (ThermoFisher) during 20 minutes at 4° C. and washed once. After that, cells were resuspended in PBS-1% BSA containing the mix of SA-coupled tetramers and incubated in the dark at room temperature during 20 minutes. Without further washing, surface antibodies were added in PBS-1% BSA and cells were incubated 20 minutes in the dark at 4° C. Surface antibodies were a combination of anti-CD3-BV650+ anti-CD8-PECy7 in combination with anti-CCR7-AF700+ anti-CD45RA-BUV395 when required. Finally, cells were washed twice and resuspended in FACS buffer for flow cytometry analysis.
The following step after binding validation to HLA-A2 allele, was to test the immunogenicity of predicted peptides. Priming assays were thus performed to test the ability of identified peptides to expand specific cytotoxic T cells. PBMCs from HLA-A2+ healthy donors were used to generate monocyte derived-DCs (moDCs). After loading the moDCs with a mix of synthetic peptides, autologous co-culture was performed with CD4+ and CD8+ T cells. Finally, the expansion of specific CD8+ T cells was analysed by flow cytometry using two-colours tetramer staining. As a control of specific expansion, the co-culture was performed in the absence of peptides. […] The same experiment was performed in order to evaluate the response in additional 5 donors.

[2] = system: TILs derived from LUAD patients; assay: Tetramer staining of expanded tumor infiltrating lymphocytes (TILs); assay type: cell-based, human; conditions: TILs expanded with peptide mix + IL-2 or IL-2 only; HLA-A2+ LUAD patients
Experimental: as §1
Tumor infiltrating lymphocytes (TILs) cultures. Tumor tissue was cut into small pieces (1-3 mm3 size, 6-12 pieces maximum). Each tumor fragment was transferred into individual wells from 24-well plates and cultured in a final volume of 2 ml RPMI 10% Human Serum+IL-2 6000 IU/ml. Cells were feed/split as necessary during 15-20 days and cryopreserve or analyzed for tetramer staining.
In a first set of experiments tumor infiltrating lymphocytes (TILs) expanded with a mix of TE-derived peptides and Il-2, or only with Il-2, were analyzed by tetramer staining. As is shown in FIGS. 13A and B, we found CD8+ T-cells cells recognizing fusion-derived peptides in TILs derived from LUAD patients.

Sequence	specific CD8+ T expansions (immunogenicity) [1]	expansion of specific CD8+ T cells (tetramer positive) [1]	CD8+ T cells recognizing peptide in TILs (tetramer positive) [2]
FLGTRVTRV	specific CD8+ T expansions		
RLLHLESFL		expand specific CD8+ T cells	
RQAPGFHHA	specific CD8+ T expansions		
MLMKTVWQA	specific CD8+ T expansions		
LLTSWHLYL	specific CD8+ T expansions		
ILSGYGPCV	specific CD8+ T expansions		
MLVTWELAL	specific CD8+ T expansions		
LLGETKVYV	specific CD8+ T expansions	expand specific CD8+ T cells	
LLDRFGYHV	specific CD8+ T expansions		
FLIVAEILI		expand specific CD8+ T cells	
LLHLESFLV	specific CD8+ T expansions		
YLWTTFFPL	specific CD8+ T expansions	expand specific CD8+ T cells	
AILPKANTV	specific CD8+ T expansions	expand specific CD8+ T cells	
ILHSLVTGV	specific CD8+ T expansions		
VLLTNTIWL	specific CD8+ T expansions		
RLADHLSFC	specific CD8+ T expansions; also recorded: immunogenic	expand specific CD8+ T cells	
ILTASITSI	specific CD8+ T expansions		
SLMQSGSPV	specific CD8+ T expansions		
AMDGKELSL	specific CD8+ T expansions		
GLLNISHTA	specific CD8+ T expansions		
GLPSHVELA	specific CD8+ T expansions; also recorded: immunogenic		found TILs recognizing
